From PubChem BioAssay (NCI)
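Step 1: Grow cells in 96-well plates. Step 2: Expose to compound for 48 hours at 5 concentrations. Step 3: Interpolate endpoints linearly; if unreached, use highest concentration. Abbreviation: GI50, concentration required for 50% inhibition of growth. Definition used: TGI = concentration required for complete inhibition of growth.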

Assays:
Assay in all cases: growth of human tumour cells (NCI), 48 h
A498 renal = tested on: A498 renal
MALME-3M melanoma = tested on: MALME-3M melanoma
SF-539 CNS = tested on: SF-539 CNS
MCF7 breast = tested on: MCF7 breast
SF-268 CNS = tested on: SF-268 CNS
LOX IMVI melanoma = tested on: LOX IMVI melanoma
SK-MEL-28 melanoma = tested on: SK-MEL-28 melanoma
MDA-MB-231 breast = tested on: MDA-MB-231 breast
KM12 colon = tested on: KM12 colon
SNB-75 CNS = tested on: SNB-75 CNS
MDA-MB-435 = tested on: MDA-MB-435
PC-3 prostate = tested on: PC-3 prostate
SK-OV-3 ovarian = tested on: SK-OV-3 ovarian
IGROV1 ovarian = tested on: IGROV1 ovarian
NCI-H23 lung = tested on: NCI-H23 lung
ACHN renal = tested on: ACHN renal
SNB-19 CNS = tested on: SNB-19 CNS
OVCAR-5 ovarian = tested on: OVCAR-5 ovarian
SF-295 CNS = tested on: SF-295 CNS
BT-549 breast = tested on: BT-549 breast
UACC-62 melanoma = tested on: UACC-62 melanoma
COLO 205 colon = tested on: COLO 205 colon
CAKI-1 renal = tested on: CAKI-1 renal
EKVX NSCLC = tested on: EKVX NSCLC
M14 melanoma = tested on: M14 melanoma
SW-620 colon = tested on: SW-620 colon
786-0 renal = tested on: 786-0 renal
NCI-H460 lung = tested on: NCI-H460 lung
A549 NSCLC = tested on: A549 NSCLC
OVCAR-8 ovarian = tested on: OVCAR-8 ovarian
HT29 colon = tested on: HT29 colon
UO-31 renal = tested on: UO-31 renal
U251 CNS = tested on: U251 CNS
NCI-H226 lung = tested on: NCI-H226 lung
HCT-116 colon = tested on: HCT-116 colon
HL-60(TB) leukemia = tested on: HL-60(TB) leukemia
HS 578T breast = tested on: HS 578T breast
HCT-15 colon = tested on: HCT-15 colon
CCRF-CEM leukemia = tested on: CCRF-CEM leukemia
K-562 leukemia = tested on: K-562 leukemia
RXF 393 renal = tested on: RXF 393 renal
HOP-92 NSCLC = tested on: HOP-92 NSCLC
SK-MEL-2 melanoma = tested on: SK-MEL-2 melanoma
NCI-H522 lung = tested on: NCI-H522 lung
HCC-2998 colon = tested on: HCC-2998 colon
OVCAR-4 ovarian = tested on: OVCAR-4 ovarian
NCI/ADR-RES ovarian = tested on: NCI/ADR-RES ovarian
HOP-62 NSCLC = tested on: HOP-62 NSCLC
MOLT-4 leukemia = tested on: MOLT-4 leukemia
T-47D breast = tested on: T-47D breast
SR leukemia = tested on: SR leukemia
SN12C renal = tested on: SN12C renal
SK-MEL-5 melanoma = tested on: SK-MEL-5 melanoma
TK-10 renal = tested on: TK-10 renal
DU-145 prostate = tested on: DU-145 prostate
OVCAR-3 ovarian = tested on: OVCAR-3 ovarian
UACC-257 melanoma = tested on: UACC-257 melanoma
RPMI-8226 leukemia = tested on: RPMI-8226 leukemia

Compound: O=C(O)CCN1C(=O)/C(=C/C(Cl)=C/c2ccccc2)SC1=S
- GI50 (A498 renal): 1970 nM
- TGI (A498 renal): 3.62 µM
- GI50 (MALME-3M melanoma): 2220 nM
- TGI (MALME-3M melanoma): 5.23 µM
- GI50 (SF-539 CNS): 2670 nM
- TGI (SF-539 CNS): 7.12 µM
- GI50 (MCF7 breast): 1980 nM
- TGI (MCF7 breast): 13.1 µM
- GI50 (SF-268 CNS): 3.15 µM
- TGI (SF-268 CNS): 20.2 µM
- GI50 (LOX IMVI melanoma): 1500 nM
- TGI (LOX IMVI melanoma): 3.04 µM
- GI50 (SK-MEL-28 melanoma): 2110 nM
- TGI (SK-MEL-28 melanoma): 5.33 µM
- GI50 (MDA-MB-231 breast): 3.38 µM
- TGI (MDA-MB-231 breast): 11 µM
- GI50 (KM12 colon): 2010 nM
- TGI (KM12 colon): 4.64 µM
- GI50 (SNB-75 CNS): 1790 nM
- TGI (SNB-75 CNS): 10.1 µM
- GI50 (MDA-MB-435): 2950 nM
- TGI (MDA-MB-435): 11.6 µM
- GI50 (PC-3 prostate): 2870 nM
- TGI (PC-3 prostate): 11.4 µM
- GI50 (SK-OV-3 ovarian): 7.54 µM
- TGI (SK-OV-3 ovarian): 20.1 µM
- GI50 (IGROV1 ovarian): 2420 nM
- TGI (IGROV1 ovarian): 6.98 µM
- GI50 (NCI-H23 lung): 1960 nM
- TGI (NCI-H23 lung): 4.63 µM
- GI50 (ACHN renal): 1930 nM
- TGI (ACHN renal): 4.76 µM
- GI50 (SNB-19 CNS): 3.41 µM
- TGI (SNB-19 CNS): 13.3 µM
- GI50 (OVCAR-5 ovarian): 2770 nM
- TGI (OVCAR-5 ovarian): 6.8 µM
- GI50 (SF-295 CNS): 2700 nM
- TGI (SF-295 CNS): 8.05 µM
- GI50 (BT-549 breast): 2140 nM
- TGI (BT-549 breast): 6.27 µM
- GI50 (UACC-62 melanoma): 1520 nM
- TGI (UACC-62 melanoma): 3.42 µM
- GI50 (COLO 205 colon): 2860 nM
- TGI (COLO 205 colon): 6.71 µM
- GI50 (CAKI-1 renal): 2200 nM
- TGI (CAKI-1 renal): 5.62 µM
- GI50 (EKVX NSCLC): 3.75 µM
- TGI (EKVX NSCLC): 14.2 µM
- GI50 (M14 melanoma): 2240 nM
- TGI (M14 melanoma): 8.32 µM
- GI50 (SW-620 colon): 2300 nM
- TGI (SW-620 colon): 6.32 µM
- GI50 (786-0 renal): 3.23 µM
- TGI (786-0 renal): 10.5 µM
- GI50 (NCI-H460 lung): 3.21 µM
- TGI (NCI-H460 lung): 10.8 µM
- GI50 (A549 NSCLC): 3.52 µM
- TGI (A549 NSCLC): 15.1 µM
- GI50 (OVCAR-8 ovarian): 3.27 µM
- TGI (OVCAR-8 ovarian): 22.2 µM
- GI50 (HT29 colon): 2570 nM
- TGI (HT29 colon): 5.88 µM
- GI50 (UO-31 renal): 1560 nM
- TGI (UO-31 renal): 3.06 µM
- GI50 (U251 CNS): 1660 nM
- TGI (U251 CNS): 3.16 µM
- GI50 (NCI-H226 lung): 6.46 µM
- TGI (NCI-H226 lung): 95.9 µM
- GI50 (HCT-116 colon): 1820 nM
- TGI (HCT-116 colon): 5.06 µM
- GI50 (HL-60(TB) leukemia): 1850 nM
- TGI (HL-60(TB) leukemia): 7.64 µM
- GI50 (HS 578T breast): 3.18 µM
- TGI (HS 578T breast): 17.3 µM
- GI50 (HCT-15 colon): 1770 nM
- TGI (HCT-15 colon): 6.82 µM
- GI50 (CCRF-CEM leukemia): 1870 nM
- TGI (CCRF-CEM leukemia): 8.25 µM
- GI50 (K-562 leukemia): 1880 nM
- TGI (K-562 leukemia): 6.26 µM
- GI50 (RXF 393 renal): 1690 nM
- TGI (RXF 393 renal): 3.38 µM
- GI50 (HOP-92 NSCLC): 4.35 µM
- TGI (HOP-92 NSCLC): 12.5 µM
- GI50 (SK-MEL-2 melanoma): 2160 nM
- TGI (SK-MEL-2 melanoma): 6.27 µM
- GI50 (NCI-H522 lung): 2070 nM
- TGI (NCI-H522 lung): 5.66 µM
- GI50 (HCC-2998 colon): 1880 nM
- TGI (HCC-2998 colon): 3.38 µM
- GI50 (OVCAR-4 ovarian): 4.79 µM
- TGI (OVCAR-4 ovarian): 18 µM
- GI50 (NCI/ADR-RES ovarian): 2600 nM
- TGI (NCI/ADR-RES ovarian): 9.59 µM
- GI50 (HOP-62 NSCLC): 3.74 µM
- TGI (HOP-62 NSCLC): 13.3 µM
- GI50 (MOLT-4 leukemia): 1980 nM
- TGI (MOLT-4 leukemia): 8.12 µM
- GI50 (T-47D breast): 1710 nM
- TGI (T-47D breast): 6.52 µM
- GI50 (SR leukemia): 929 nM
- TGI (SR leukemia): 5.47 µM
- GI50 (SN12C renal): 2670 nM
- TGI (SN12C renal): 9.41 µM
- GI50 (SK-MEL-5 melanoma): 1840 nM
- TGI (SK-MEL-5 melanoma): 3.47 µM
- GI50 (TK-10 renal): 4.19 µM
- TGI (TK-10 renal): 9.59 µM
- GI50 (DU-145 prostate): 3.14 µM
- TGI (DU-145 prostate): 12.4 µM
- GI50 (OVCAR-3 ovarian): 2410 nM
- TGI (OVCAR-3 ovarian): 7.01 µM
- GI50 (UACC-257 melanoma): 1960 nM
- TGI (UACC-257 melanoma): 7.81 µM

Compound: COc1cc(/C=C/C=C2\CC(C)C/C(=C\C=C\c3ccc(O)c(OC)c3)C2=O)ccc1O (centres undefined)
- TGI (MALME-3M melanoma): 31.1 µM
- TGI (SF-539 CNS): 82.3 µM
- TGI (MCF7 breast): 42 µM
- TGI (SF-268 CNS): > 100 µM
- TGI (LOX IMVI melanoma): 65.1 µM
- TGI (SK-MEL-28 melanoma): 45.5 µM
- TGI (MDA-MB-231 breast): 32.4 µM
- TGI (KM12 colon): > 100 µM
- TGI (SNB-75 CNS): 32.3 µM
- TGI (MDA-MB-435): 41 µM
- TGI (PC-3 prostate): 48.8 µM
- TGI (SK-OV-3 ovarian): 18.2 µM
- TGI (IGROV1 ovarian): 20.8 µM
- TGI (NCI-H23 lung): 40.2 µM
- TGI (ACHN renal): 40.8 µM
- TGI (SNB-19 CNS): 96.2 µM
- TGI (OVCAR-5 ovarian): 28.8 µM
- TGI (BT-549 breast): 27.3 µM
- TGI (UACC-62 melanoma): 26.7 µM
- TGI (COLO 205 colon): > 100 µM
- TGI (CAKI-1 renal): 33.2 µM
- TGI (EKVX NSCLC): > 100 µM
- TGI (M14 melanoma): 46.9 µM
- TGI (SW-620 colon): > 100 µM
- TGI (786-0 renal): 47.9 µM
- TGI (NCI-H460 lung): 92.3 µM
- TGI (A549 NSCLC): > 100 µM
- TGI (OVCAR-8 ovarian): 30.9 µM
- TGI (HT29 colon): 31 µM
- TGI (RPMI-8226 leukemia): 48.1 µM
- TGI (UO-31 renal): 25.1 µM
- TGI (U251 CNS): 33 µM
- TGI (NCI-H226 lung): 28 µM
- TGI (HCT-116 colon): > 100 µM
- TGI (HL-60(TB) leukemia): 33.8 µM
- TGI (HS 578T breast): > 100 µM
- TGI (HCT-15 colon): > 100 µM
- TGI (CCRF-CEM leukemia): 15.6 µM
- TGI (K-562 leukemia): > 100 µM
- TGI (HOP-92 NSCLC): 23.4 µM
- TGI (SK-MEL-2 melanoma): > 100 µM
- TGI (NCI-H522 lung): 2.5 µM
- TGI (HCC-2998 colon): > 100 µM
- TGI (OVCAR-4 ovarian): 39.9 µM
- TGI (NCI/ADR-RES ovarian): 77.4 µM
- TGI (HOP-62 NSCLC): 37.8 µM
- TGI (MOLT-4 leukemia): 29.6 µM
- TGI (T-47D breast): > 100 µM
- TGI (SR leukemia): 91.4 µM
- TGI (SN12C renal): > 100 µM
- TGI (SK-MEL-5 melanoma): 37.6 µM
- TGI (TK-10 renal): 16 µM
- TGI (DU-145 prostate): > 100 µM
- TGI (OVCAR-3 ovarian): 31.1 µM
- TGI (UACC-257 melanoma): 89.7 µM
